In patent publication US20260250247A1, “NOVEL INDOLINE DERIVATIVE AND USE THEREOF” (CK REGEON INC., priority 2023, published 2026):

Columns and labels:
Assay type in all cases: in vivo, C57BL/6N mice
[1] = system: β-catenin and CXXC5 in liver tissue; assay: Liver immunohistochemistry of β-catenin and CXXC5 in MASH mice; conditions: 25 mg/kg/day orally for 4 weeks
Experimental: (§1) Five-week-old wild-type male C57BL/6N mice were purchased from Orient Bio Co., Ltd. They were allowed to acclimate to the laboratory environment for one week. Mice weighing 18-20 g on average were used in the experiment. To ensure ethical and scientific validity and efficient management of animal experiments, the experiment was conducted with the approval of the Institutional Review Board (IACUC-A-202205-1472-01) of Severance Hospital, Yonsei University College of Medicine.
(§2) The mice were divided into a normal group (NCD) and a high-fat diet group (HFD). The normal group (NCD) was fed a normal chow diet (NCD, Teklad Global 18% protein rodent diet), and the high-fat diet group (HFD) was fed a high-fat diet (HFD, D12492) in which fat accounted for 60% of the total calories, for 8 weeks.
Mice induced with metabolic dysfunction-associated steatohepatitis (MASH) (hereinafter, referred to as MASH or MASH group) were prepared by administering CCl4 intraperitoneally twice a week for 4 weeks after feeding the high-fat diet (HFD) for 8 weeks. […]
The sections treated with the primary antibodies were washed with PBS and incubated with biotinylated anti-mouse (1:400; Dako) or anti-rabbit (1:400; Dako) secondary antibodies for 1 hour at room temperature. […] After the staining, images were taken and analyzed using a bright-field microscope (Nikon TE-2000U).

[2] = system: mice induced with metabolic dysfunction-associated steatohepatitis (MASH); assay: Liver fibrosis score from collagen staining (Picrosirius red) in MASH mice; conditions: 25 mg/kg/day orally for 4 weeks; mean±SD; normal group 0, MASH group 3.11
Experimental: as §1, §2
Mice induced with metabolic dysfunction-associated steatohepatitis (MASH) (hereinafter, referred to as MASH or MASH group) were prepared by administering CCl4 intraperitoneally twice a week for 4 weeks after feeding the high-fat diet (HFD) for 8 weeks. The […] was diluted with corn oil at a ratio of 1:19 and injected at a dosage of 2 mL/kg. The normal group (NOD) was administered the same volume of physiological saline.
The animals were divided into 7 groups, each with 10 animals.
After preparing the 7 groups, the animals were euthanized using carbon dioxide and the liver tissues were extracted. The extracted tissues were fixed in 4% neutral paraformaldehyde and embedded in paraffin to prepare sections. The paraffin sections were cut to 4-μm thickness, deparaffinized, and then rehydrated. The hydrated sections were stained with a Weigert's iron hematoxylin solution for 8 minutes and then with Picrosirius red for 1 hour. Collagen fibers were stained red and nuclei were stained blue. The sections were photographed using a bright-field microscope (Nikon TE-2000U).
The main mechanism of nonalcoholic fatty liver disease is the induction of hepatic stellate cell activation, which induces collagen production and leads to liver fibrosis due to collagen accumulation. From the result of collagen staining (Picrosirius red) for observing the total amount of collagen deposition in Test Example 3-6, the liver fibrosis score was analyzed. Stages 2 to 3 were diagnosed as nonalcoholic fatty liver disease (MASH) (M. Brunt et al., 2005).
All quantitative data are presented as mean±standard deviation (SD). In each experiment, all measurements were made at least three times, and data were analyzed using the two-tailed, unpaired Student's t test. P values of <0.05 were considered statistically significant.

[3] = system: mice induced with metabolic dysfunction-associated steatohepatitis (MASH); assay: Liver morphology, H&E histology and MAFLD activity score in MASH mice; conditions: 25 mg/kg/day orally for 4 weeks
Experimental: as §1
The mice were divided into a normal group (NCD) and a high-fat diet group (HFD). The normal group (NCD) was fed a normal chow diet (NCD, Teklad Global 18% protein rodent diet), and the high-fat diet group (HFD) was fed a high-fat diet (HFD, D12492) in which fat accounted for 60% of the total calories, for 8 weeks. […]
After preparing the 7 groups, the animals were sacrificed using carbon dioxide and the liver tissues were extracted. […] Twenty randomly selected microscopic fields were photographed and analyzed using a Nikon bright-field optical microscope (Nikon TE-2000U).
After preparing the 7 groups, the animals were sacrificed using carbon dioxide and the liver tissues were extracted. After staining the liver tissues with H&E, scores were calculated using the MAFLD activity scoring system. […]

With `N#Cc1ccc2c(c1)/C(=C1/Nc3ccccc3C1=O)C(=O)N2` [5-cyanoindirubin] the “β-catenin expression in liver, immunohistochemical staining” value [1] was “no significant difference from the MASH group (vehicle)”, the “Degree of liver fibrosis (fibrosis score)” value [2] was 2.89 and the “steatosis / lipid droplets in liver tissue, H&E staining” value [3] was “steatosis was also confirmed clearly”. For the same molecule, the “fatty liver, morphological observation of liver tissue” value ([3]; vs MASH group (vehicle)) was “fatty liver was not alleviated significantly”.
